Tests used:
H1048 μOTOCs = experiment: 18F-FDG uptake in μOTOCs by Cerenkov Luminescence Imaging, H1048; type: cell-based; conditions: 250 μM, 24 hrs, CLI
Procedure: (§1) Cobalt chloride (CoCl2) is known to cause an increase in 18F-FDG uptake in cells treated /over 24 hours. As such, 250 μM CoCl2 was used to test whether μTOCs could be imaged.
(§2) μOTOCs of H1048 (small cell lung carcinoma) and T47D (mammary gland; ductal carcinoma) cells were generated using the method described in Example 1.
(§3) On Day 3 post seeding/creation of the OTOCs (i.e, after forming the μOTOCs in oil then transferring to T75 flask for 3 days of culture), the μOTOCs were transferred one at a time via pipette into a 96 well plate (1 μOTOC/well). 250 μM CoCl2 was added to each well. Cerenkov Luminescence Imaging was used to monitor the FDG response in vitro.

T47D μOTOCs = experiment: 18F-FDG uptake in μOTOCs by Cerenkov Luminescence Imaging, T47D; type: cell-based; conditions: 250 μM, 24 hrs, CLI
Procedure: as §1, §2, §3

HT-29 (KRAS WT) = experiment: In vivo response of HT-29 (t/c); conditions: HT-29 in vivo
HT-29 OTOCs = experiment: 18F-FDG uptake in OTOCs by Cerenkov Luminescence Imaging, HT-29; type: cell-based; conditions: 700 ng/ml, 24 hr time point, CLI
Excerpt: (§4) The objective of this study was to monitor radio-labeled compound uptake in vitro using the OTOC system described herein. Three tumor cell lines (HT-29 (colon tumor cell line), HCT-116 (colon tumor cell line), and H460 (lung tumor cell line) were used to generate OTOCs in order to test the effects of FDG uptake after drug treatment with MLN9708, a proteasome inhibitor. OTOCs for each cell line were transferred to 6 well plates, respectively, with 6 OTOCs/well.
(§5) An in vitro dosage of MLN9708 was extrapolated from historical in vivo PK studies for this compound. A 700 ng/ml concentration was decided upon and used in the OTOC studies described herein (derived from the mean tumor concentration achievable with a standard dose of MLN9708 (11 mg/kg PK dose, IV)).
(§6) The imaging modality Cerenkov Luminescence Imaging (CLI, Robertson et al. (2009) Phys. Med. Biol. 54:N355-N365) was used to monitor the FDG response in vitro.
(§7) The cell line HT-29 (KRAS WT) is known to be responsive to MLN9708 in vivo (t/c <0.3), while HCT-116 and H460 (both KRAS mutants) have shown resistance to proteasome inhibition (data not shown). OTOCs were imaged via CLI at 24, 48, 72, 96 hours post compound administration.

HCT-116 OTOCs = experiment: 18F-FDG uptake in OTOCs by Cerenkov Luminescence Imaging, HCT-116; type: cell-based; conditions: 700 ng/ml, 24 hr time point, CLI
Excerpt: as §4, §5, §6, §7

H460 OTOCs = experiment: 18F-FDG uptake in OTOCs by Cerenkov Luminescence Imaging, H460; type: cell-based; conditions: 700 ng/ml, 24 hr time point, CLI
Excerpt: as §4, §5, §6, §7

HCT-116 spheroids = experiment: InSphero assay (hanging drop spheroids), HCT-116; conditions: Homo sapiens
Excerpt: This experiment that was undertaken was to determine if there was an increase in the resistance of known drug in comparison of the spheroid culture to OTOC format. The same conditions that were use in the previous InSphero experiment (in regards to dose and timing) were used in this experiment.

[1] = tested on: HCT-116 (HCT-116-Luc) OTOCs; conditions: repeated experiment, newly generated HCT-116 OTOCs and InSphero spheroids
Procedure: 24 OTOCs were removed and placed in a 6-well plate, 4 OTOCs/well on day 3 post OTOC seeding/creation.
At 4 days post drug administration all OTOC's were collected for viability measurement to look at growth kinetics and drug resistance to STP.
Each OTOC was placed in a glass test tube with several glass beads. Approximately 800 of PBS was added to test tube and the tube was vortexed for 2-3 min to disrupt the OTOC. After vortexing each test tube was placed on ice until sampling. A black 96 well plate was used for the samples. For each lane 100 μl of the OTOC solution was placed in each well (8 wells/800 (total)/OTOC) until all OTOCs samples were completed. 100 μl of Celltiter glow was added to each well and the plates were rested for 10 min before reading. IVIS Spectrum was run on Auto exposure for each plate and the Living Image analysis program was used to determine Radiance/per well. Lanes were added up and group average and error was determined.
The same conditions that were use in the previous InSphero experiment (in regards to dose and timing) were used in this experiment.

## [Cl][Co][Cl] [CoCl2, Cobalt chloride]
H1048 μOTOCs
  increase in 18F-FDG uptake: 22.6%
T47D μOTOCs
  increase in FDG uptake: 33.7%

## CC(C)C[C@H](NC(=O)CNC(=O)c1cc(Cl)ccc1Cl)B1OC(=O)C(CC(=O)O)(CC(=O)O)O1 [MLN9708]
HT-29 (KRAS WT)
  t/c: < 0.3
HT-29 OTOCs
  increased FDG uptake: 48%
HCT-116 OTOCs
  FDG uptake response: < 10%
H460 OTOCs
  FDG signal change from control: -10%

## CN[C@@H]1C[C@H]2O[C@@](C)([C@@H]1OC)n1c3ccccc3c3c4c(c5c6ccccc6n2c5c31)C(=O)NC4 [Staurosporine]
HCT-116 spheroids
  IC50: 37 nM
[1]
  greater resistance in OTOCs assay as compared to InSphero assay: 1800 ×
